# According to patent US9169502B2, “Method of producing L-lysine using a Corynebacterium glutamicum microorganism” (Paik Kwang Industrial Co., Ltd., priority 2010, dated 2015):
# Like-named read-outs stand apart in the source and are kept apart here.
# Columns and labels:
# [1] = target: T1, Corynebacterium glutamicum glucose 6-phosphate dehydrogenase (G6PDH, zwf), wild type (Corynebacterium glutamicum, UniProt Q8NQ63); test: Kinetic characterization of wild type G6P dehydrogenase (Michaelis-Menten constants and inhibition by metabolites); type: biochemical; settings: relative to the activity without addition (100%)
# T1 sequence (Q8NQ63 1-484): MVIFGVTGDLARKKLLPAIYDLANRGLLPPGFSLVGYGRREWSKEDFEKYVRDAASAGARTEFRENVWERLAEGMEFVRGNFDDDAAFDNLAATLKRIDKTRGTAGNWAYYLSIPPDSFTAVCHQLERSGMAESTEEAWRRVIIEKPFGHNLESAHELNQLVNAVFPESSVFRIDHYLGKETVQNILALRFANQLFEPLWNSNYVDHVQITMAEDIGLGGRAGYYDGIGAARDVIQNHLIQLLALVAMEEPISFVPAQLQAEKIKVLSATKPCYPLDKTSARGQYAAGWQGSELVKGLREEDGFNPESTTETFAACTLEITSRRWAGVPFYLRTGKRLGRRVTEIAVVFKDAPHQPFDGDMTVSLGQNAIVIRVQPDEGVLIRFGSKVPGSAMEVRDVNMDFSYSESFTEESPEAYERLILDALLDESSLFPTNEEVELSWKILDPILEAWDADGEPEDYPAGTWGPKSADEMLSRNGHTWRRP
# T1 sequence (Q8NQ62 1-319 partner): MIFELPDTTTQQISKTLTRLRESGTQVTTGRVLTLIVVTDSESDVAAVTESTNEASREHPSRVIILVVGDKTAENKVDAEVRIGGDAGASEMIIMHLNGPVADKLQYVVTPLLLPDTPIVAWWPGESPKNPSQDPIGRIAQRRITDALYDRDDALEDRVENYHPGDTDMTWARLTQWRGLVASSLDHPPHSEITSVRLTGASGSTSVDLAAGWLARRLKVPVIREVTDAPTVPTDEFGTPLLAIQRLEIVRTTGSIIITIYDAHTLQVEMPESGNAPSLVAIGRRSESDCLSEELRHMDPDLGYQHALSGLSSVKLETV
# Method: (§1) In the exponential growth phase, cells were harvested by centrifugation (5 min, 9800×g, Biofuge stratos, Heraeus, Hanau, Germany), washed once with disruption buffer and finally suspended to 0.25 g CWW per mL. Disruption was performed by sonication (MSE soniprep 150, Sanyo Europe, Munich, Germany) in a ice-water-bath with five 15 sec pulses at 20 microns, or mechanically. To this end, cell suspension was aliquoted in 750 μl amounts in 2 mL Eppendorf tubes containing glass beads. Disruption was performed in a ribolyser (MM301, Retsch, Haan, Germany) at 30 Hz (2×5 min; 5 minutes break in between). Crude cell extracts were obtained by centrifugation for 10 minutes at 13000 rpm (Biofuge fresco, Heraeus, Hanau, Germany) for ribolyser disruption or 2×30 min at 8500 rpm (Biofuge stratos, Heraeus, Hanau, Germany) for disruption by sonication. Protein content was determined by the method of Bradford (Bradford, 1976) with a reagent solution from BioRad (Quick Start Bradford Dye, BioRad, Hercules, USA) and a BSA protein standard.
# All measurements were performed as triplicates in a total volume of 1 mL by online monitoring of the change in absorbance in a photospectrometer (Specord 40, Analytik Jena, Jena, Germany or Helios alpha, Thermo Scientific, Waltham, USA). […] Activities are given as specific enzyme activity [U mg^−1] with 1 U=1 μmol min^−1 at 30° C. and calculated from the change in absorbance [A min^−1] and a specific extinction coefficient of ε340=6.22 L mmol^−1 cm^−1 for NAD(P)H. As a general procedure, a master mix without substrate and cell extract was prepared from the stock solutions for the reaction buffer, MgCl2, Co-factors (NADP, NAD, NADH, ADP, TPP, CoA) and coupling enzymes (LDH, G6PDH, PGI, ribose 5-phosphate isomerase (RPI), ribulose 5-phosphate epimerase (RPE), TPI/GDH) and incubated for 10 min at 30° C. […]
# Cell disruption was performed in a buffer containing 100 mM Tris/HCl (pH 7.5), 10 mM MgCl2 and 0.75 mM DTT. […] Due to instability of the enzyme, the activity was measured immediately after cell disruption. […]
# [2] = target: T2, Corynebacterium glutamicum glucose 6-phosphate dehydrogenase (G6PDH, zwf), variant A243T (Corynebacterium glutamicum, UniProt Q8NQ63); test: Kinetic characterization of A243T-variant of G6P dehydrogenase (Michaelis-Menten constants and inhibition by metabolites); type: biochemical; settings: for Km: A243T mutant, cell extracts from cells grown on minimal medium with glucose, 30° C., pH 7.8
# T2 construct: grown on glucose minimal medium
# Method: as §1
# All measurements were performed as triplicates in a total volume of 1 mL by online monitoring of the change in absorbance in a photospectrometer (Specord 40, Analytik Jena, Jena, Germany or Helios alpha, Thermo Scientific, Waltham, USA). Negative controls were carried out without substrate or cell extract, respectively. Activities are given as specific enzyme activity [U mg^−1] with 1 U=1 μmol min^−1 at 30° C. and calculated from the change in absorbance [A min^−1] and a specific extinction coefficient of ε340=6.22 L mmol^−1 cm^−1 for NAD(P)H. As a general procedure, a master mix without substrate and cell extract was prepared from the stock solutions for the reaction buffer, MgCl2, Co-factors (NADP, NAD, NADH, ADP, TPP, CoA) and coupling enzymes (LDH, G6PDH, PGI, ribose 5-phosphate isomerase (RPI), ribulose 5-phosphate epimerase (RPE), TPI/GDH) and incubated for 10 min at 30° C. Substrate solution and cell extract were provided in 1.5 mL polystyrene cuvettes (Plastibrand, Wertheim, Germany). The reaction was started by quick addition of the master mix.
# Cell disruption was performed in a buffer containing 100 mM Tris/HCl (pH 7.5), 10 mM MgCl2 and 0.75 mM DTT. DTT was prepared freshly as 100 mM stock solution and added to the cell suspension before disruption. Due to instability of the enzyme, the activity was measured immediately after cell disruption. The reaction mix for quantification of the G6P dehydrogenase activity contained 100 mM Tris/HCl (pH 7.8), 200 mM KCl, 1 mM NADP, 10 mM MgCl2, 5 mM G6P and 50 μl cell extract. Michaelis-Menten affinity constants were determined by varying the concentrations of the substrates, G6P or NADP, respectively. To test the influence of effectors on activity, the reaction mix was additionally supplemented with ATP, PEP, FBP or NADPH in varied concentrations.
# [3] = system: Corynebacterium glutamicum diaminopimelate dehydrogenase (DDH), SEQ ID NO: 6; settings: Wehrmann, et al., 1998; read-out: km value towards ammonium; cited from earlier work
smiles,measurement,setting,value
"C=C(OP(=O)(O)O)C(=O)O [PEP, Phosphoenolpyruvate]",inhibition at 5000 µM,"[1]; 5 mM PEP, read-out: Inhibition by metabolites (Remaining Activity), PEP",62.6 ± 0.1%
same,"Inhibition by metabolites (Remaining Activity), PEP","[2]; 5 mM PEP, relative to the activity without addition (100%)",72.5 ± 0.1%
"NC(=O)c1ccc[n+]([C@@H]2O[C@H](COP(=O)(O)OP(=O)(O)OC[C@H]3O[C@@H](n4cnc5c(N)ncnc54)[C@H](OP(=O)(O)O)[C@@H]3O)[C@@H](O)[C@H]2O)c1 [NADP, Nicotinamide adenine dinucleotide phosphate]",Km,"[2]; read-out: KM, NADP",75 ± 4 µM
"O=P(O)(O)OC[C@H]1OC(O)[C@H](O)[C@@H](O)[C@@H]1O (stereo partly shown) [G6P, Glucose 6-phosphate]",Km,"[2]; read-out: KM, G6P",481 ± 31 µM
"NC(=O)C1=CN([C@@H]2O[C@H](COP(=O)(O)OP(=O)(O)OC[C@H]3O[C@@H](n4cnc5c(N)ncnc54)[C@H](OP(=O)(O)O)[C@@H]3O)[C@@H](O)[C@H]2O)C=CC1 [NADPH, Nicotinamide adenine dinucleotide phosphate]",inhibition by NADPH,"[2]; A243T compared with wild type enzyme, FIG. 10B",No significant difference
N [ammonium],Km,[3],34000 µM
"Nc1ncnc2c1ncn2[C@@H]1O[C@H](COP(=O)(O)OP(=O)(O)OP(=O)(O)O)[C@@H](O)[C@H]1O [ATP, Adenosine triphosphate]",percent remaining activity at 5000 µM,[1]; 5 mM ATP,68.8 ± 0.1%
same,"Inhibition by metabolites (Remaining Activity), ATP","[2]; 5 mM ATP, relative to the activity without addition (100%)",86.0 ± 0.2%
"O=P(O)(O)OC[C@H]1OC(O)(COP(=O)(O)O)[C@@H](O)[C@@H]1O (stereo partly shown) [FBP, Fructose 1,6-bisphosphate]",inhibition at 5000 µM,"[1]; 5 mM FBP, read-out: Inhibition by metabolites (Remaining Activity), FBP",84.4%
same,"Inhibition by metabolites (Remaining Activity), FBP","[2]; 5 mM FBP, relative to the activity without addition (100%)",87.0 ± 0.1%
